The test system of data set [1] is P. berghei. Nature of the data set: 1-day Peters test against P. berghei in vivo. Conditions: 1 day.
The subject of data set [2] is ANKA strain of P. Berghei. Nature of the data set: single dose STI in vivo screen in infected Moro SPF mice. Conditions: for Activity (%) po / Activity (%) sc: percent reduction in parasitemia day 3 post-infection; for antimalarial activity, overall assessment: overall judgement of in vitro and in vivo data of Table 2. The procedure:
In the single dose STI in vivo screen, Moro SPF mice infected with the ANKA strain of P. Berghei (groups of three mice) were treated on day one post-infection with trioxolanes dissolved or suspended in 3% ethanol and 7% Tween 80. […] Antimalarial activity was measured by percent redution in parasitemia on day three post-infection and survival times compared to an untreated control group. Survival to day 30 post-infection is considered to be a cure.

Data set [3] has as its system chloroquine-sensitive NF54 strain of P. falciparum. Nature of the data set: in vitro screen against chloroquine-sensitive NF54 strain of P. falciparum. The class given is cell-based. The note with it: for IC50: Plasmodium falciparum.
The test system of data set [4] is chloroquine-resistant K1 strain of P. falciparum. Nature of the data set: in vitro screen against chloroquine-resistant K1 strain of P. falciparum. The data set is classed as cell-based. The note with it: for IC50: Plasmodium falciparum.
For data set [5], the system named is P. berghei. Nature of the data set: 4-day Peters test against P. berghei in vivo. Conditions: 4 day.
Data set [6] can be described thus: differential scanning calorimetry (DSC), thermal stability. The note with it: thermal decomposition. The class given is physicochemical. (In general: Differential scanning calorimetry records heat flow against a reference as temperature is scanned.)
The test system of data set [7] is 21-day-old schistosomules of Schistosoma mansoni. Put plainly: effect on 21-day-old schistosomules in mice. The data set is classed as in vivo. The note with it: single 200 mg/kg per os; for FWR (%): female worm reduction rate; for Mean female worm burden: mean ± standard deviation; for TWR (%): total worm reduction rate. The method, then: […] Each group was treated per os with OZ compounds at a single dose of 200 mg/kg. Untreated mice served as the control. All groups were killed 4 weeks after treatment and the liver and intestine were removed and separated. The liver and intestine were compressed and alive male and female worms could be seen and counted. The effect of the compounds was evaluated by mean total and female worm burden.

Data set [8] concerns adult schistosomes (49-day-old) of Schistosoma mansoni. Nature of the data set: effect on adult schistosomes (49-day-old) in mice. The data set is classed as in vivo. Conditions: single 400 mg/kg per os; for TWR (%): total worm reduction rate; for Mean total worm burden: x ± SD. The method, then:
Mice were infected with 100 Schistosoma mansoni cercariae […]. Each group was treated per os with OZ compounds at a single dose of 400 mg/kg. Untreated mice served as the control. All groups were killed 4 weeks after treatment and the liver and intestine were removed and separated. The liver and intestine were compressed and alive male and female worms could be seen and counted.

Where [9] appears, read: single 100 mg/kg po, survival to day 30 = cure.
The mark [10] stands for this setting: single 100 mg/kg sc, survival to day 30 = cure.
The mark [11] stands for this setting: NF54, read-out: IC50 (ng/ml) NF54.

Values after ≈ are worked out from the molar mass of the structure shown. Read-outs that look alike come from different tables or passages of the source. Marks after values point to notes of the source that are not given here.

For `CCO[C@H]1O[C@@H]2O[C@@]3(C)CC[C@H]4[C@H](C)CC[C@@H]([C@H]1C)[C@@]24OO3` [Arteether, arteether, reference compound], the “P. berghei (1 day) ED50 po” value in data set [1] stood at 2.4 mg/kg. The “P. berghei (1 day) ED90 po” value in data set [1] is recorded as 6.8 mg/kg. For the same compound, the figures for the “Activity (%) po” value in data set [2] (single 10 mg/kg po) and in data set [2] (single 100 mg/kg po) were 98% and 99.98%, respectively. Also, the “Activity (%) sc” value in data set [2] (single 10 mg/kg sc) and in data set [2] (single 100 mg/kg sc) was 100% throughout. Also, the “Survival (days) po” value in data set [2] (single 10 mg/kg po) turned out to be 8 days; in data set [2] (setting [9]), 12 days. The “Survival (days) sc” value in data set [2] (single 10 mg/kg sc) came out at 9.7 days; in data set [2] (setting [10]), 26.3 days. In addition, in data set [3] (in vitro, NF54 strain), the “IC50 (ng/ml) NF54” value amounted to 0.54 ng/mL (≈ 0.00173 µM).

In the case of `C1CCC2(CC1)OOC1(CCCCC1)O2` [OZ01, 7,14,15-Trioxadispiro[5.1.5.2]pentadecane], the “antimalarial activity, overall assessment” value (from here on “antimalarial activity”) in data set [2] is given as “less active”. The “Activity (%) po” value in data set [2] (single 100 mg/kg po) is listed as 0/0%. The “Activity (%) sc” value in data set [2] (single 100 mg/kg sc) was 0/0%. In addition, the “Survival (days) po” value in data set [2] (setting [9]) was 5.3/5.3 days. In addition, the “Survival (days) sc” value in data set [2] (setting [10]) is reported as 5.3/5.3 days. In addition, the IC50 in data set [4] (K1, read-out: IC50 (ng/ml) K1) was > 100 ng/mL; in data set [3] (setting [11]), > 100 ng/mL.

Turning to `FC1CCCCC12OOC1(CCCCC1)O2` (centres unmarked) [OZ06, 1-Fluoro-7,14,15-trioxadispiro[5.1.5.2]pentadecane], the “antimalarial activity” value in data set [2] was “less active”. For the same compound, the “Survival (days) po” value in data set [2] (setting [9]) is 1.0/1.0 days. Further, in data set [2] (setting [10]), the “Survival (days) sc” value is recorded as 1.0/1.0 days. In addition, the IC50 in data set [4] (K1, read-out: IC50 (ng/ml) K1) was determined as 18 ng/mL (≈ 0.0782 µM); in data set [3] (setting [11]), 22 ng/mL (≈ 0.0955 µM).

In the case of `CON=C1CCC2(CC1)OOC1(O2)C2CC3CC(C2)CC1C3` (centres unmarked) [OZ15, Adamantane-2-spiro-3′-8′-methoxyimino-1′,2′,4′-trioxaspiro[4.5]decane], in data set [5], the “P. berghei (4 day) ED50 po” value is 2.9 mg/kg and the “P. berghei (4 day) ED90 po” value turned out to be 6.3 mg/kg. Further, in data set [5] (sc), the “P. berghei (4 day) ED50 sc” value is 0.7 mg/kg and the “P. berghei (4 day) ED90 sc” value is 1.1 mg/kg. Also, the “Tm dec. (° C.)” value in data set [6] was determined as 157.8 °C. For the same compound, in data set [1], the “P. berghei (1 day) ED50 po” value was determined as 3.1 mg/kg, the “P. berghei (1 day) ED90 po” value was found to be 5.9 mg/kg, the “P. berghei (1 day) ED50 sc” value was determined as 0.7 mg/kg and the “P. berghei (1 day) ED90 sc” value was 2.6 mg/kg. In data set [7], the “FWR (%)” value was determined as 70%, the “Mean female worm burden” value is 3.8 ± 2.4^b and the “TWR (%)” value worked out at 63%. In data set [8], the “Percentage of dead worm” value was 10 (21/210), the Total dead worm is on record as 21, the “TWR (%)” value was 0% and the “Mean total worm burden” value is listed as 37.8 ± 20.6.

Regarding `CC(C)(C)C1CCC2(CC1)OOC1(O2)C2CC3CC(C2)CC1C3` (centres unmarked) [OZ18, Adamantane-2-spiro-3′-8′-t-butyl-1′,2′,4′-trioxaspiro[4.5]decane], in data set [6], the “Tm dec. (° C.)” value was 166.5 °C. Also, in data set [2], the “antimalarial activity” value was “completely inactive”. Moreover, the “Activity (%) po” value in data set [2] (single 10 mg/kg po) is 0/0%. Besides, the “Activity (%) sc” value in data set [2] (single 10 mg/kg sc) is given as 0/0%. Moreover, in data set [7], the “FWR (%)” value was 9%, the “Mean female worm burden” value is listed as 11.4 ± 2.7^a and the “TWR (%)” value is recorded as 12%. Besides, in data set [8], the “Percentage of dead worm” value stood at 0, the Total dead worm was 0, the “TWR (%)” value came to 0.6% and the “Mean total worm burden” value is 35.6 ± 7.2^a.

Regarding `c1ccc(CON=C2CCC3(CC2)OOC2(O3)C3CC4CC(C3)CC2C4)cc1` (centres unmarked) [OZ19, Adamantane-2-spiro-3′-8′-benzyloxyimino-1′,2′,4′-trioxaspiro[4.5]decane], in data set [5], the “P. berghei (4 day) ED50 po” value is on record as <10/>10 mg/kg and the “P. berghei (4 day) ED90 po” value is <10/>10 mg/kg. Further, the “Tm dec. (° C.)” value in data set [6] was found to be 157.8 °C. In data set [1], the “P. berghei (1 day) ED50 po” value turned out to be 3.4 mg/kg, the “P. berghei (1 day) ED90 po” value is 9.4 mg/kg, the “P. berghei (1 day) ED50 sc” value turned out to be 1.8 mg/kg and the “P. berghei (1 day) ED90 sc” value is reported as 3.6 mg/kg. Moreover, the “in vitro potency, fold less potent than the analog” value in data set [4] (in vitro) is recorded as ~2 fold.

Regarding `O=S1(=O)CCC2(CC1)OOC1(O2)C2CC3CC(C2)CC1C3` (centres unmarked) [OZ50, Adamantane-2-spiro-3′-1′,2′,4′-trioxa-8′-thiaspiro[4.5]decane 8′,8′-dioxide], in data set [6], the “Tm dec. (° C.)” value came to 147.1 °C. In addition, the IC50 stood at 1.1 ng/mL (≈ 0.0035 µM) in data set [4] (in vitro, K1 strain, read-out: IC50 (ng/ml) K1) and 1.2 ng/mL (≈ 0.00382 µM) in data set [3] (in vitro, NF54 strain, read-out: IC50 (ng/ml) NF54).

Regarding `O=C(O)[C@H]1CC[C@]2(CC1)OOC1(O2)C2CC3CC(C2)CC1C3` (stereo partly drawn) [OZ71, cis-Adamantane-2-spiro-3′-8′-carboxy-1′,2′,4′-trioxaspiro[4.5]decane], the “Tm dec. (° C.)” value in data set [6] amounted to 165.9 °C. In addition, the “IC50 (ng/ml) K1” value in data set [4] (in vitro, K1 strain) stood at 4.5 ng/mL (≈ 0.0146 µM). Further, the “IC50 (ng/ml) NF54” value in data set [3] (in vitro, NF54 strain) was found to be 3.7 ng/mL (≈ 0.012 µM).

For the compound `CCS(=O)(=O)N1CCC2(CC1)OOC1(O2)C2CC3CC(C2)CC1C3` (centres unmarked) [OZ79, Adamantane-2-spiro-3′-8′-ethanesulfonyl-1′,2′,4′-trioxa-8′-azaspiro[4.5]decane], the “Tm dec. (° C.)” value in data set [6] stood at 153.6 °C. Moreover, the “in vivo activity” value in data set [2] (10 mg/kg po/sc data of Table 2) is reported as “good”. In addition, the “in vitro potency” value in data set [4] (in vitro, strains not distinguished) is reported as “very potent”.

For the compound `CC(=O)OCC(=O)N1CCC2(CC1)OOC1(O2)C2CC3CC(C2)CC1C3` (centres unmarked) [OZ82, Adamantane-2-spiro-3′-8′-acetoxyacetyl-1′,2′,4′-trioxa-8′-azaspiro[4.5]decane], in data set [6], the “Tm dec. (° C.)” value was found to be 153.7 °C. In addition, the “antimalarial activity” value in data set [2] is reported as “very active”. For the same compound, the “IC50 (ng/ml) NF54” value in data set [3] (in vitro, NF54 strain) is on record as “/1.3 ng/ml”.

In the case of `O=C(CO)N1CCC2(CC1)OOC1(O2)C2CC3CC(C2)CC1C3` (centres unmarked) [OZ83, Adamantane-2-spiro-3′-8′-hydroxyacetyl-1′,2′,4′-trioxa-8′-azaspiro[4.5]decane], in data set [6], the “Tm dec. (° C.)” value stood at 163.6 °C. Moreover, the “antimalarial activity” value in data set [2] is “very active”. Besides, the “IC50 (ng/ml) NF54” value in data set [3] (in vitro, NF54 strain) is reported as “/1.0 ng/ml”.

Regarding `O=S(=O)(c1ccc(F)cc1)N1CCC2(CC1)OOC1(O2)C2CC3CC(C2)CC1C3` (centres unmarked) [OZ86, Adamantane-2-spiro-3′-8′-(4′-fluorobenzenesulfonyl)-1′,2′,4′-trioxa-8′-azaspiro[4.5]decane], the “Tm dec. (° C.)” value in data set [6] is 153.0 °C. Further, the “IC50 (ng/ml) NF54” value in data set [3] (in vitro, NF54 strain) was “/2.3 ng/ml”.

`O=C(CCl)N1CCC2(CC1)OOC1(O2)C2CC3CC(C2)CC1C3` (centres unmarked) [OZ87, Adamantane-2-spiro-3′-8′-chloroacetyl-1′,2′,4′-trioxa-8′-azaspiro[4.5]decane]: the “Tm dec. (° C.)” value in data set [6] stood at 149.7 °C. Further, the “antimalarial activity” value in data set [2] is “much less active”. In data set [3] (in vitro, NF54 strain), the “IC50 (ng/ml) NF54” value is recorded as “/4.5 ng/ml”.

In the case of `O=C(OCCC1CCC2(CC1)OOC1(O2)C2CC3CC(C2)CC1C3)c1ccc([N+](=O)[O-])cc1` (centres unmarked) [OZ88, Adamantane-2-spiro-3′-8′-[2′-(4′-nitrobenzoyloxy)ethyl]-1′,2′,4′-trioxaspiro[4.5]decane], in data set [6], the “Tm dec. (° C.)” value was 158.9 °C. Also, in data set [3] (in vitro, NF54 strain), the “IC50 (ng/ml) NF54” value was “/4.2 ng/ml”.

Consider `OCCC1CCC2(CC1)OOC1(O2)C2CC3CC(C2)CC1C3` (centres unmarked) [OZ89, Adamantane-2-spiro-3′-8′-(2′-hydroxyethyl)-1′,2′,4′-trioxaspiro[4.5]decane], for which the “Tm dec. (° C.)” value in data set [6] was 154.7 °C. For the same compound, the “antimalarial activity” value in data set [2] was “quite active”. Further, the “IC50 (ng/ml) NF54” value in data set [3] (in vitro, NF54 strain) is reported as “/1.0 ng/ml”.

Take `CC1(O)CCC2(CC1)OOC1(O2)C2CC3CC(C2)CC1C3` (centres unmarked) [OZ90, Adamantane-2-spiro-3′-8′-hydroxy-8′-methyl-1′,2′,4′-trioxaspiro[4.5]decane]: in data set [6], the “Tm dec. (° C.)” value is 153.2 °C. Moreover, the “antimalarial activity” value in data set [2] is on record as “quite active”. In data set [3] (in vitro, NF54 strain), the “IC50 (ng/ml) NF54” value was “/1.1 ng/ml”.
